Reference: patent publication US4267192A, “Method for treating inflammation” (priority 1980, dated 1981)

Tests used:
[1] = biological target: T1, prostaglandin synthetase (Ovis aries, UniProt P05979); assay: in vitro prostaglandin synthetase activity assay (PGE2 formation from 14C-arachidonic acid); type: biochemical, sheep; design: microsomal fraction of sheep vesicles; from tissue; host or cells: sheep seminal vesicles, microsomal fraction (105,000×g precipitate); conditions: for cpm (× 1000), in vitro PGE2 biosynthesis: sheep seminal vesicle microsomes
T1 sequence (P05979 25-600): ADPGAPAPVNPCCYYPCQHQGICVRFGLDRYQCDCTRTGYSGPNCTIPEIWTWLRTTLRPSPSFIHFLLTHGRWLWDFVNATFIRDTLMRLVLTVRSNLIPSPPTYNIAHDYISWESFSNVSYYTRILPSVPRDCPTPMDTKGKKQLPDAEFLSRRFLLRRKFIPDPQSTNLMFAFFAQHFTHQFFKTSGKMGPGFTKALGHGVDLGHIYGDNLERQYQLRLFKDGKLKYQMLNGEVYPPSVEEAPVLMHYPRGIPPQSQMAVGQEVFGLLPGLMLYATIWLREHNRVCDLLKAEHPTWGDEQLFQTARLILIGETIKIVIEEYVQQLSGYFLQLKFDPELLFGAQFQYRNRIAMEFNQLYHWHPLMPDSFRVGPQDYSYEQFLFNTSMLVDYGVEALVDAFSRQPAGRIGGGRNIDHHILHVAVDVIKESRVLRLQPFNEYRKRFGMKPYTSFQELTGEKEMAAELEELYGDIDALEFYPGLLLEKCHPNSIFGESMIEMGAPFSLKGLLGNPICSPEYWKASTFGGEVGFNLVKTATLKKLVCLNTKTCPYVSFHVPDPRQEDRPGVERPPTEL
Protocol: Frozen sheep seminal vesicles are cleaned of fat and connective tissue and then minced. Ten grams of the minced tissue are homogenized in 20 ml. of 0.125 M Na-EDTA buffer, pH 8.3, employing polytron homogenizer. The homogenate is then centrifuged at 1,200×g. for 10 minutes and the resulting supernatant filtered through two layers of cheese cloth. The filtrate is then centrifuged at 10,000×g. for 20 minutes. The supernatant is then centrifuged at 105,000×g. for 1 hour. The precipitate is dissolved once with Na-EDTA buffer and recentrifuged at 105,000×g. for 1 hour. The final microsomal fraction is then dissolved in 1.0 ml. of Na-EDTA buffer and stored in a freezer.
The incubation buffer medium (1.0 ml. total) consists of 500 μg of lyophilized bovine serum albumin, 5×10^-4 M hydroquinone, 1.0×10^-2 M reduced glutathione, 3×10^-6 M^14 C arachidonic acid (AA) in 0.02 ml. of methanol, 0.01 ml. of the tested drugs in methanol at the desired concentrations, and the microsomal fraction (1.2 mg. protein/ml. incubation medium). This medium is incubated for one hour at 37° C. At the end of this period, enzyme reaction is terminated by the addition of 0.25 ml. of 1 N HCl. 15 μg of non-radioactive Prostaglandin E2 (PGE2), Prostaglandin F2α (PGF2α) and AA (5 μg each) in an ethanol solution is then added to all of the acidified reaction mixtures. The reaction products are extracted with ethylacetate (2×2 ml.) and the total organic solution of 4 ml. is washed with 1.0 ml. of triple distilled water. 3.0 ml. of the total ethylacetate solution is removed and evaporated to dryness under nitrogen gas. The residue is then re-dissolvedin 50 μl. of 100% ethanol and spotted on silica gel GF plates and subjected to chromatograph. Only the organic phase of the ethyl acetate:water:iso-octane:acetic acid system (11:10:5:2) is used as solvent in the chromatography system.
After exposure to iodine vapor, the PGE2 and AA spots are scraped from the TLC plate, put into separate vials, and mixed with 10.0 ml. of Instagel scintillation cocktail for counting in a Nuclear-Chicago Mark II liquid scintillation counter.
Results are expressed as counts per minute (cpm), evidencing in vitro PGE2 biosynthesis.

[2] = tested on: established adjuvant arthritis in rats; assay: established adjuvant arthritis, dosing on days 16, 17 and 18; conditions: rat
Protocol: (§1) Polyarthritis is induced in groups of 6-10 Sprague-Dawley rats weighing between 180-220 g. by a subcutaneous injection into the right paw of dessicated Mycobacterium butyricum or tuberculosis (0.5 mg/0.1 ml.) suspended in light mineral oil. […] Both hind paw volumes (ml.) are measured by mercury plethysmograph on day 0 or at the time of injection of the complete adjuvant. Increases in paw volume (viz. edema) are determined for both paws on days 4 and 16. The change in body weight from day 0 to day 16 is also calculated. Statistical analysis of differences in paw edemas and body weight is performed by using the unpaired. Student's t-test.
The changes in left paw edema are measured at the end of 19 days, 23 days and 30 days.

[3] = tested on: adjuvant arthritis in rats; assay: Adjuvant Arthritis Test, periodic administration (with daily regimen for comparison); conditions: rat; for Increase in Paw Volume 0-16 days (left paw) / Increase in Right Paw Volume (ml.) 0-4 days: mean ± S.E.
Protocol: as §1
Adjuvant arthritis is induced as described in A. above, but drugs are administered only on days 2, 3, 4 or on days 8, 9, 10.

[4] = oral 2 mg/kg, Daily (0-15) except weekends
[5] = oral 6 mg/kg, Daily (0-15) except weekends
[6] = oral 18 mg/kg, Daily (0-15) except weekends

O=C(O)C=C1c2ccccc2C=Cc2ccccc21 [DCHA]
cpm (× 1000), in vitro PGE2 biosynthesis ([1]; 30 μg/ml): 6.6 ± .3 cpm (× 1000)
cpm (× 1000), in vitro PGE2 biosynthesis ([1]; 50 μg/ml): 5.2 ± .4 cpm (× 1000)
cpm (× 1000), in vitro PGE2 biosynthesis ([1]; 60 μg/ml): 5.1 ± .2 cpm (× 1000)
cpm (× 1000), in vitro PGE2 biosynthesis ([1]; 100 μg/ml): 3.0 ± .1 cpm (× 1000)
cpm (× 1000), in vitro PGE2 biosynthesis ([1]; 120 μg/ml): 3.3 ± .4 cpm (× 1000)
cpm (× 1000), in vitro PGE2 biosynthesis ([1]; 150 μg/ml): 2.1 ± .3 cpm (× 1000)
cpm (× 1000), in vitro PGE2 biosynthesis ([1]; 200 μg/ml): 2.0 ± .1 cpm (× 1000)
IC50 ([1]; calculated from Table 6, read-out: 50% inhibitory concentration (converted)): 259 µM
inhibitory effect on prostaglandin synthetase activity ([1]; in words): does not have an appreciable inhibitory effect on prostaglandin synthetase activity
return to pretreatment or higher edema levels ([2]; end of 30 days, 12 days after last dosing): no significant return to pretreatment or even higher edema levels
% Change from Control, left paw edema (day 0-19) ([2]; oral 10 mg/kg, days 16, 17, 18): -20%
% Change from Control, left paw edema (day 0-23) ([2]; oral 10 mg/kg, days 16, 17, 18): -15%
% Change from Control, left paw edema (day 0-30) ([2]; oral 10 mg/kg, days 16, 17, 18): -21%
Increase in left paw edema ml. (day 0-19) ([2]; oral 10 mg/kg, days 16, 17, 18): 0.78 ± 0.11 mL
Increase in left paw edema ml. (day 0-23) ([2]; oral 10 mg/kg, days 16, 17, 18): 0.82 ± 0.13 mL
Increase in left paw edema ml. (day 0-30) ([2]; oral 10 mg/kg, days 16, 17, 18): 1.20 ± 0.16 mL
% Change from Control, left paw edema (day 0-19) ([2]; oral 30 mg/kg, days 16, 17, 18): -26%
% Change from Control, left paw edema (day 0-23) ([2]; oral 30 mg/kg, days 16, 17, 18): -10%
% Change from Control, left paw edema (day 0-30) ([2]; oral 30 mg/kg, days 16, 17, 18): -29%
Increase in left paw edema ml. (day 0-19) ([2]; oral 30 mg/kg, days 16, 17, 18): 0.75 ± 0.11 mL
Increase in left paw edema ml. (day 0-23) ([2]; oral 30 mg/kg, days 16, 17, 18): 0.87 ± 0.16 mL
Increase in left paw edema ml. (day 0-30) ([2]; oral 30 mg/kg, days 16, 17, 18): 1.07 ± 0.17 mL
% Change from Control, left paw edema (day 0-19) ([2]; oral 90 mg/kg, days 16, 17, 18): -42%
% Change from Control, left paw edema (day 0-23) ([2]; oral 90 mg/kg, days 16, 17, 18): -24%
% Change from Control, left paw edema (day 0-30) ([2]; oral 90 mg/kg, days 16, 17, 18): -32%
Increase in left paw edema ml. (day 0-19) ([2]; oral 90 mg/kg, days 16, 17, 18): 0.59 ± 0.06 mL
Increase in left paw edema ml. (day 0-23) ([2]; oral 90 mg/kg, days 16, 17, 18): 0.73 ± 0.10 mL
Increase in left paw edema ml. (day 0-30) ([2]; oral 90 mg/kg, days 16, 17, 18): 1.03 ± 0.11 mL
effect on left paw edema of rats with established adjuvant arthritis ([2]; oral, days 16, 17, 18): significant decrease in the left paw edema
activity in short term dosing regimen ([3]; days 2, 3, 4): less so
activity in short term dosing regimen ([3]; days 8, 9, 10): active
% Change of Left Paw Edema at Day 16 [3, 4]: +12%
% Change of Right Paw Edema at Day 4 [3, 4]: +17%
Change In Body Weight (mean ± S.E.) 0-16 days [3, 4]: 8.9 ± 7.8
Increase in Paw Volume 0-16 days (left paw) [3, 4]: 0.82 ± 0.18
Increase in Right Paw Volume (ml.) 0-4 days [3, 4]: 1.60 ± 0.08 mL
% Change of Left Paw Edema at Day 16 [3, 5]: -16%
% Change of Right Paw Edema at Day 4 [3, 5]: -24%
Change In Body Weight (mean ± S.E.) 0-16 days [3, 5]: 6.0 ± 4.8
Increase in Paw Volume 0-16 days (left paw) [3, 5]: 0.62 ± 0.04
Increase in Right Paw Volume (ml.) 0-4 days [3, 5]: 1.03 ± 0.06 mL
% Change of Left Paw Edema at Day 16 ([3]; oral 10 mg/kg, Days 2,3,4): -22%
% Change of Right Paw Edema at Day 4 ([3]; oral 10 mg/kg, Days 2,3,4): -33%
Change In Body Weight (mean ± S.E.) 0-16 days ([3]; oral 10 mg/kg, Days 2,3,4): 14.7 ± 11.7
Increase in Paw Volume 0-16 days (left paw) ([3]; oral 10 mg/kg, Days 2,3,4): 0.58 ± 0.13
Increase in Right Paw Volume (ml.) 0-4 days ([3]; oral 10 mg/kg, Days 2,3,4): 0.92 ± 0.07 mL
% Change of Left Paw Edema at Day 16 ([3]; oral 10 mg/kg, Days 8,9,10): -58%
Change In Body Weight (mean ± S.E.) 0-16 days ([3]; oral 10 mg/kg, Days 8,9,10): 10.5 ± 7.9
Increase in Paw Volume 0-16 days (left paw) ([3]; oral 10 mg/kg, Days 8,9,10): 0.31 ± 0.06
% Change of Left Paw Edema at Day 16 [3, 6]: -65%
% Change of Right Paw Edema at Day 4 [3, 6]: -41%
Change In Body Weight (mean ± S.E.) 0-16 days [3, 6]: 18.3 ± 6.7
Increase in Paw Volume 0-16 days (left paw) [3, 6]: 0.26 ± 0.05
Increase in Right Paw Volume (ml.) 0-4 days [3, 6]: 0.81 ± 0.07 mL
